Here are results for five molecules from patent US8242152B2, “Use of 4-[(4-thiazolyl)phenoxy]alkoxy-benzamidine derivatives for the prophylaxis and treatment of osteoporosis” (Dong Wha Pharmaceutical Co., Ltd., priority 2001, dated 2012).

For one test, the system named is rabbit osteoclasts. The test is described as follows: TRAP(+) MNC formation in isolated rabbit osteoclast cultures, single treatment without LTB4 (Example 6). The conditions noted are these: for number of TRAP(+) MNCs / osteoclast formation: 1000 nM, single treatment without LTB4, dentine slices, 48 hrs (FIG. 3-8). It is filed as cell-based. As to the method:
(§1) Rabbit osteoclasts were isolated as described by Victoria Tai's report (Doctoral Dissertation, 1997, Graduate Department of Pharmacology, University of Toronto) and Rraser P. Coxon et al. (Methods in Molecular Medicine, vol 80). Neonatal rabbits (New Zealand White) were sacrificed by ether-inhaling method under a hood. The removed long bones were dissected free of attached soft tissues and placed into ice-cold PBS. The long bones were cut longitudinally and mechanically curetted in 10 ml medium 199 with antibiotics (10 ug/ml penicillin G and 50 ug/ml gentamycin) in a glass Petri dish. Each bone was curetted with a scalpel blade and was finely minced. The fragments were then vigorously agitated by pipetting up and down using a pasteur pipette and vortex-mixed for 30 seconds. The fragments were allowed to settle and the cell suspension was then transferred to a 50 ml tube and the previous step repeated three times to a total volume of 40 ml. The bone fragments were allowed to settle (>1 min). The cell suspension was then transferred to a new 50 ml tube, passed through a 40 um cell strainer and centrifuged at 200 g for 8 minutes. The supernatant was removed and the pellet was immediately resuspended in α-MEM with 2% FBS (bicarbonate buffered medium).
(§2) 40 uL droplets of osteoclast-containing suspensions were plated onto 60 mm tissue culture plastic dishes or on dentine slices in 96-well microtiter plates in 2% medium. The cells were allowed ninety minutes for attachment before the addition of 2 mL α-MEM with 2% FBS. After 24 hr culture, cells were washed to remove non-adherent cells and replaced with fresh medium as describes below.
After 24 hr in culture, the medium was replaced with fresh medium containing control, LTB4 receptor antagonists (1000 nM), DW1350 (10, 100 and 1000 nM) or LTB4 (100 nM) and the cultures were continued for an additional 48 hrs.
(§3) All cells were cultured at 37° C. in a humidified atmosphere of 95% air and 5% CO2 in bicarbonate buffered medium at pH 7.4.
(§4) Differentiated osteoclasts are multinucleated cells and have specific enzyme activity, such as ‘tartrate-resistant acid phosphatase (TRAP)’. Therefore, Osteoclast formation was determined by counting the number of TRAP-positive multinucleated cells (TRAP(+) MNCs).
(§5) After culture, the cells were fixed with 10% neutral buffered formalin for 30 min at 4° C., washed twice in distilled water and stained for TRAP activity by incubating with substrate. The number of TRAP(+)MNC with more than 2 nuclei was counted under photomicroscope.
(§6) Results were expressed as mean number of TRAP(+)MNC±SD of All experiments were done at least twice. Statistical analysis was performed for each experiment by student t-test.

The subject of test [1] is LTB4-induced osteoclast formation. The test is described as follows: LTB4-induced osteoclast formation in rabbit osteoclast cultures, co-treatment and pre-treatment (Example 6). The format is cell-based. As to the method: as §1, §2
After 24 hr in culture, the medium was removed and replaced with fresh medium containing both LTB4 receptor antagonist (1000 nM) and LTB4 (100 nM) or both DW1350 (1000 nM) and LTB4 (100 nM). The cultures were continued for an additional 48 hrs.
After 6 hrs in culture, the medium was removed and cells were pretreated with LTB4 receptor antagonists such as LY292728 (Journal of Medical Chemistry, 1995, vol. 38, No. 10, p 4411-4432), SB209247 (Journal of Medical Chemistry, 1996, vol. 39, No. 19, p 3837-3841), LY293111(Journal of Medical Chemistry, 1995, vol. 38, No. 10, p 4411-4432) and LY223982 (Journal of Medical Chemistry, 1993, vol. 36, p 3333-3340) or DW1350-containing medium and culture continued for 18 hrs. The medium was replaced with medium containing both LTB4 receptor antagonist and LTB4 or DW1350 and LTB4. The cultures were continued for an additional 48 hrs.
as §3, §4, §5, §6

In the next test the target is LTB4 receptor (Homo sapiens, UniProt Q15722). Conditions: cited from earlier work.
Chain of LTB4 receptor (Q15722 whole entry): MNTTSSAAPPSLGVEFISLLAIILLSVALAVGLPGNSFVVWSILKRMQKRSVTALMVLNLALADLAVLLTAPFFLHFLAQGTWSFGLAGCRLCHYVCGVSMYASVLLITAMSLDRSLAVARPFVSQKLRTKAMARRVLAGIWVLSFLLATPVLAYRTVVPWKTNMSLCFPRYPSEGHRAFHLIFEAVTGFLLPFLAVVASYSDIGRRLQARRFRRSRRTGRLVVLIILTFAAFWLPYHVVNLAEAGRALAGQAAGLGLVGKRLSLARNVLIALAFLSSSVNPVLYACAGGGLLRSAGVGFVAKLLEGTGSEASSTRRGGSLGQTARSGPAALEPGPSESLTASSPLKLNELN
[2] abbreviates: 1000 nM in the presence of 100 nM LTB4 (FIGS. 6˜8), regimen not separated.

Structures are written as SMILES. “And” between values parts separate entries of the source, which are not always exact repeats. Identical values can stand only once.

What is called IC50 is the concentration that gives 50% inhibition. The Ki is a dissociation constant, usually derived from enzyme kinetics or from competition with a known ligand.

`CCCCC/C=C\C[C@@H](O)/C=C/C=C/C=C\[C@@H](O)CCCC(=O)O` [LTB4, leukotriene-B4]: the “increase in the number of TRAP-positive osteoclasts compared to the control group” value with rabbit osteoclasts (100 nM LTB4, 48 hours, dentin slices) is 30˜40% and 40%.
Consider `COc1ccc(/C=C/CCCCOc2ccc(C(=O)c3cccc(C(=O)O)c3)cc2CCC(=O)O)cc1` [LY223982], for which the LTB4-stimulated osteoclast formation entry in test [1] (setting [2]) is recorded as “significantly abolished LTB4-stimulated osteoclast formation”. The IC50 on LTB4 receptor is 13 nM. For the same molecule, the “number of TRAP(+) MNCs / osteoclast formation” value in the test with rabbit osteoclasts is on record as “did not change the number of osteoclasts”.
Turning to `CCc1cc(-c2ccc(F)cc2)c(O)cc1OCCCOc1ccc2c(=O)c3cc(C(=O)O)ccc3oc2c1CCC(=O)O` [LY292728], the LTB4-stimulated osteoclast formation result in test [1] (pre-treatment 18 hrs, then 1000 nM compound + 100 nM LTB4 for 48 hrs, dentin slices) is “appeared to suppress the formation of osteoclasts”; in test [1] (simultaneous treatment: 1000 nM compound + 100 nM LTB4, 48 hrs, dentin slices) it was “significantly abolished osteoclast formation increased by LTB4”. For the same molecule, the Ki on LTB4 receptor is 0.5 nM. Besides, the “number of TRAP(+) MNCs / osteoclast formation” value with rabbit osteoclasts is recorded as “no significant effect on osteoclast formation compared to the control culture”. Moreover, in the test on rabbit osteoclasts (10˜1000 nM, 48 hours, tissue culture dish, single treatment (FIG. 1, 2)), the “number of TRAP(+) MNCs” value was “no significant effect on the number of osteoclasts”.
As for `CCCc1c(OCCCOc2cc(O)c(-c3ccc(F)cc3)cc2CC)cccc1Oc1ccccc1C(=O)O` [LY293111], the LTB4-stimulated osteoclast formation result in test [1] (setting [2]) is “significantly abolished LTB4-stimulated osteoclast formation”. Besides, the inhibition constant Ki at LTB4 receptor was 25 nM. In the test with rabbit osteoclasts, the “number of TRAP(+) MNCs / osteoclast formation” value was “did not change the number of osteoclasts”.
Turning to `O=C(O)/C=C/c1nc(CSc2c(Cl)cccc2Cl)ccc1OCCc1ccccc1` [SB209247], the LTB4-stimulated osteoclast formation entry in test [1] (setting [2]) is listed as “significantly abolished LTB4-stimulated osteoclast formation”. Besides, the “number of TRAP(+) MNCs / osteoclast formation” value in the test on rabbit osteoclasts was “did not change the number of osteoclasts”.
